According to patent US6670144B1 (priority 1999, dated 2003):
Where no end group is shown, it is not given here.

Legend:
[1] = biological target: Yersinia protein tyrosine phosphatase (YOP) (Yersinia enterocolitica, UniProt P15273); assay type: biochemical; details: read-out: IC50 for inhibition of YOP
Src kinase = Src kinase (Homo sapiens, UniProt P12931); experiment: FRET assay of Src phosphorylation of rhodamine labelled SHPS-1 peptide, read by binding to SHP2-GFP; assay type: biochemical; details: 10 μM staurosporine added before the Src enzyme; FIG. 19
Procedure: These FRET-based assays are performed to measure Src kinase activity as determined by the Src kinase dependent formation of a complex between the SH2 domain of SHP2 labelled with a fluorophore and an synthetic peptide based on SHPS-1, also labelled with a fluorophore.
Interaction between the tandem SH2 domain of SHP2 and a synthetic peptide based on SHPS-1 is mediated by the state of phosphorylation of the peptide. A FRET partnership can be established between phosphorylated peptide and the SH2 domain providing both moieties are labelled with suitable fluorophores which are brought into close proximity upon interaction of binding partners. […]
SHP2-GFP was diluted to 0.5 μM in assay buffer (50 mM Tris HCL pH 7.2, 10 mM β-mercaptoethanol, 0.5 mg/ml BSA, 0.015% Brij 35). […] Initial readings of the fluorescence of the SHP2-GFP construct were made using 485 nm excitation wavelength and 520 nm emission wavelength. Rhodamine labelled peptide (2 μl of the above phosphorylation reactions) was added to the SHP2-GFP solution and formation of FRET was monitored in real-time by measuring the decrease in fluorescence emission of SHP2-GFP at 520 nm as shown in FIG. 17. […]

Chk1 protein kinase [2] = biological target: T1, Chk1 protein kinase (Homo sapiens, UniProt O14757); details: EDTA 1 mM, 5 mM or 20 mM added before 21 mU Chk1; FIG. 11
Chk1 protein kinase [3] = biological target: T1, Chk1 protein kinase; details: EDTA 10 mM or 20 mM added prior to enzyme addition; FIG. 8
[4] = biological target: T2, PKA Peptide 2, labelled with biotin and bound to streptavidin, non-phosphorylated (biotin label (bound to streptavidin in the assay)); experiment: fluorescence polarisation of coumarin labelled peptide 1 with biotin labelled peptide 2 on streptavidin
T2 construct: Coiled-coil forming peptide with a PKA phosphorylation site
T2 peptide: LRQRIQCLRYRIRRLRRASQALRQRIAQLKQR

T1 sequence (O14757 whole entry): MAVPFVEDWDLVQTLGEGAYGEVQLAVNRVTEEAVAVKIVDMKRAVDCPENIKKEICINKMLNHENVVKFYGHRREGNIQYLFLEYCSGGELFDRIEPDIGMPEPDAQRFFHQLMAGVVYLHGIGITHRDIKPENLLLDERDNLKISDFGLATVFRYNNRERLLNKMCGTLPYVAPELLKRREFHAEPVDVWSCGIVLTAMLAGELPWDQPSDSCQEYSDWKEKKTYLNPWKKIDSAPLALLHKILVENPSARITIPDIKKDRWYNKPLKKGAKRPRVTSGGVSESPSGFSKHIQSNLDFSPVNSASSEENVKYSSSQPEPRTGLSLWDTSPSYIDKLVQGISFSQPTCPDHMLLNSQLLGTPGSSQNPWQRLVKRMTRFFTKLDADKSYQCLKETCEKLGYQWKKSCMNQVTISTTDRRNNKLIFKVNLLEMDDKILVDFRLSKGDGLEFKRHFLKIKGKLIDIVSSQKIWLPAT
Sequence of Yersinia protein tyrosine phosphatase (YOP) (P15273 whole entry): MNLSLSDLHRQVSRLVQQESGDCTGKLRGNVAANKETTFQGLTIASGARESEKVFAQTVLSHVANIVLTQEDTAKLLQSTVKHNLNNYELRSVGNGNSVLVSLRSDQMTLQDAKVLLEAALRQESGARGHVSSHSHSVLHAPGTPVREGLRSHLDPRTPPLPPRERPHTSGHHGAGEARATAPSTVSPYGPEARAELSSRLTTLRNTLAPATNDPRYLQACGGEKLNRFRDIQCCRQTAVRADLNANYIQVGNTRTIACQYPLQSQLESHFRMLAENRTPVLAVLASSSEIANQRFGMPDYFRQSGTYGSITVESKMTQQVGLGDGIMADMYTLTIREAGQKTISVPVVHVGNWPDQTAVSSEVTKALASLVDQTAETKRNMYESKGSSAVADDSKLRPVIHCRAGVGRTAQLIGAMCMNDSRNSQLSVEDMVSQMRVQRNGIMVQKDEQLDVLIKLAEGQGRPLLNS
Sequence of Src kinase (P12931 whole entry, the tested form may be a part): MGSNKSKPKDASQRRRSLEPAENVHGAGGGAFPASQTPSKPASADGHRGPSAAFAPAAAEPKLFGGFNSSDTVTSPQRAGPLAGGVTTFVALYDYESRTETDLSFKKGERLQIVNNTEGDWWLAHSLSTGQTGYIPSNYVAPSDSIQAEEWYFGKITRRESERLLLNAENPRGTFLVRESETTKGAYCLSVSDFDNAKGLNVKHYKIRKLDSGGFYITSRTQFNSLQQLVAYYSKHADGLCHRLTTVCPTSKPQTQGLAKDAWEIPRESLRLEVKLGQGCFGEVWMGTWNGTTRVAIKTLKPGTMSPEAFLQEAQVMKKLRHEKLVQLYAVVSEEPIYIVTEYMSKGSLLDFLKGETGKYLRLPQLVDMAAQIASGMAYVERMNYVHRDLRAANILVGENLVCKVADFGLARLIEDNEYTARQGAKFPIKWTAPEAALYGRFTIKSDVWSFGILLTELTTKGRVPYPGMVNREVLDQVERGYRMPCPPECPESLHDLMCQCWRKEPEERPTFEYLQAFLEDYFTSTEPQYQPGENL

Molecule `[Na+].[Na+].[Na+].[O]=[V]([O-])([O-])[O-]` [vanadate, Sodium orthovanadate] has an IC50 [1] of 250 nM.

In the case of `CN[C@@H]1C[C@H]2O[C@@](C)([C@@H]1OC)n1c3ccccc3c3c4c(c5c6ccccc6n2c5c31)C(=O)NC4` [staurosporine], the “Inhibition of Src: formation of FRET partnership between SH2 domain of SHP2 and SHPS-1 peptide” value (Src kinase) is reported as “failed to form a FRET partnership”.

`O=C(O)CN(CCN(CC(=O)O)CC(=O)O)CC(=O)O` [EDTA] was tested, and the “Inhibition of Chk1 phosphorylation of fluorescein labelled Chktide (real time)” value (Chk1 protein kinase [2]) was “inhibition” and the “Inhibition of Chk1 phosphorylation of Chktide peptide (end point)” value (Chk1 protein kinase [3]) was “inhibition”.

B1: PKA Peptide 1, labelled with coumarin, non-phosphorylated (peptide)
peptide: EREIKALEREIRRLRRASQALEREIAQLERE
modifications: also: coumarin label, position not given here
notes: Coiled-coil forming peptide with a PKA phosphorylation site; also called coumarin labelled peptide 1
B1: binds [4].
